The target of assay [1] is T1, complement C5a receptor 1 (C5aR1) (Homo sapiens, UniProt P21730).
T1 construct: β-galactosidase fragment (PathHunter enzyme complementation); host or cells: CHO-K1 (PathHunter CHO-K1 C5aR1 β-arrestin cell line)
T1 sequence (P21730 1-350): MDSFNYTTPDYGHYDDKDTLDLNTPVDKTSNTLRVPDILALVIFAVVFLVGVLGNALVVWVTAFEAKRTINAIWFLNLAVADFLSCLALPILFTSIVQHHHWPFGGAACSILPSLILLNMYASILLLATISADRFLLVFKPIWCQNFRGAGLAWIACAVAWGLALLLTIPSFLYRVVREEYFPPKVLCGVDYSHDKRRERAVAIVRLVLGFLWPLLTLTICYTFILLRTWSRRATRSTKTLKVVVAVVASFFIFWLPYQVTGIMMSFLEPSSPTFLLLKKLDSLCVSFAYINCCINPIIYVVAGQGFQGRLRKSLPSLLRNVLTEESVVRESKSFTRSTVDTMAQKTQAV
Put plainly: β-arrestin recruitment via C5aR1 activation in live CHO-K1 cells (PathHunter), agonist mode. It counts as cell-based. The method, then: (§1) Exemplary compounds were evaluated for classical GPCR β-arrestin recruitment via complement C5a receptor 1 (C5aR1) activation in live CHO-K1 cells. This cell line expresses two fragments of the […] protein coupled to β-arrestin and C5aR1. Complementation of the two fragments allows for the assessment of both C5aR1 agonism and antagonism. Recombinant hC5a (EC90) was used as the competing natural agonist against disclosed compounds (more information on the expanded protocol and cell line can be found on the manufacturer's website: PathHunter® CHO-K1 C5aR1 β-arrestin cell line, DiscoverX, Catalog No. 93-0557C2). […] IC50 ranges: A: IC50≤500 nM; B: 500 nM<IC50≤5 uM; C: 5 uM<IC50≤100 uM; D: IC50>100 uM.
Background: Arrestin recruitment assays detect the binding of arrestin to an activated receptor.

In assay [2] the target is T1, complement C5a receptor 1 (C5aR1). Kind of assay: β-arrestin recruitment via C5aR1 activation in live CHO-K1 cells (PathHunter), antagonist mode. It counts as cell-based. As to the method:
as §1

[3] abbreviates: antagonist mode, recombinant hC5a (EC90) as competing natural agonist, live CHO-K1 cells, read-out: [Antagonist] B-arrestin2 recruitment: Average IC50.

The term pIC50 denotes the IC50 on a negative log10 scale, so that one unit is a factor of ten.

pIC50: −log10 of the molar value. Where two headings read alike, the source gives them in different places.

Turning to `Cc1ccc2c(c1)nc(C1CCN(c3c(C)cccc3F)CC1)c(=O)n2Cc1ncccc1C(F)(F)F` [142B, 3-(1-(2-Fluoro-6-methylphenyl)piperidin-4-yl)-6-methyl-1-((3-(trifluoromethyl)pyridin-2-yl)methyl)quinoxalin-2(1H)-one], the “[Agonist] B-arrestin2 recruitment: Average EC50 (nM)” value (“[Agonist] B-arrestin2 recruitment” below) in assay [1] is reported as “Non-Active”.

`Cc1cccc(F)c1[C@@H]1CC[C@H](c2cc3nccnc3n(Cc3ncccc3C(F)(F)F)c2=O)C1` [200A, 7-((1S,3R)-3-(2-Fluoro-6-methylphenyl)cyclopentyl)-5-((3-(trifluoromethyl)pyridin-2-yl)methyl)pyrido[2,3-b]pyrazin-6(5H)-one]: the “[Agonist] B-arrestin2 recruitment” value in assay [1] (at 10 μM) is on record as “Non-Active at 10 μM”.

Turning to `Cc1cccc(F)c1[C@H]1CC[C@H](c2cc3nccnc3n(Cc3ncccc3C(F)(F)F)c2=O)C1` [200B, 7-((1S,3S)-3-(2-Fluoro-6-methylphenyl)cyclopentyl)-5-((3-(trifluoromethyl)pyridin-2-yl)methyl)pyrido[2,3-b]pyrazin-6(5H)-one], in assay [1] (at 10 μM), the “[Agonist] B-arrestin2 recruitment” value is given as “Non-Active at 10 μM”.

In the case of `Cc1cnc2cc(C3CCN(c4c(C)cccc4F)CC3)c(=O)n(Cc3cccnc3OC(F)(F)F)c2n1` [compound 100, 7-(1-(2-Fluoro-6-methylphenyl)piperidin-4-yl)-3-methyl-5-((2-(trifluoromethoxy)pyridin-3-yl)methyl)pyrido[2,3-b]pyrazin-6(5H)-one], the pIC50 in assay [2] was over 6.30.

Take `Cc1cnc2cc(N3CCC(c4c(C)cccc4F)CC3)c(=O)n(Cc3ncccc3C(F)(F)F)c2n1` [compound 101, 7-(4-(2-Fluoro-6-methylphenyl)piperidin-1-yl)-3-methyl-5-((3-(trifluoromethyl)pyridin-2-yl)methyl)pyrido[2,3-b]pyrazin-6(5H)-one]: the pIC50 in assay [2] (setting [3]) is 5.30 to 6.30.

As for `Cc1ncc2cc(C3CCN(c4c(C)cccc4F)CC3)c(=O)n(Cc3ncccc3OC(F)(F)F)c2n1` [compound 102, 6-(1-(2-Fluoro-6-methylphenyl)piperidin-4-yl)-2-methyl-8-((3-(trifluoromethoxy)pyridin-2-yl)methyl)pyrido[2,3-d]pyrimidin-7(8H)-one], the pIC50 in assay [2] (setting [3]) was over 6.30.

As to `Cc1cnc2c(C)c(C3CCN(c4c(C)cccc4F)CC3)c(=O)n(Cc3nccnc3C)c2n1` [compound 103, 7-(1-(2-Fluoro-6-methylphenyl)piperidin-4-yl)-3,8-dimethyl-5-((3-methylpyrazin-2-yl)methyl)pyrido[2,3-b]pyrazin-6(5H)-one], the pIC50 in assay [2] (setting [3]) was 5.30 to 6.30.

As for `Cc1cnc2cc(N3CCN(c4c(C)cccc4F)CC3)c(=O)n(Cc3nccnc3C)c2n1` [compound 104, 7-(4-(2-Fluoro-6-methylphenyl)piperazin-1-yl)-3-methyl-5-((3-methylpyrazin-2-yl)methyl)pyrido[2,3-b]pyrazin-6(5H)-one], the pIC50 in assay [2] (setting [3]) is 5.30 to 6.30.

With `Cc1ncc2cc(C3CCN(c4c(C)cccc4F)CC3)c(=O)n(Cc3ncccc3OC(F)F)c2n1` [compound 105, 8-((3-(Difluoromethoxy)pyridin-2-yl)methyl)-6-(1-(2-fluoro-6-methylphenyl)piperidin-4-yl)-2-methylpyrido[2,3-d]pyrimidin-7(8H)-one], the pIC50 in assay [2] (setting [3]) was over 6.30.

As for `Cc1cnc2cc(C3CCN(c4c(C)cccc4F)CC3)c(=O)n(Cc3nccnc3C)c2n1` [compound 106, 7-(1-(2-Fluoro-6-methylphenyl)piperidin-4-yl)-3-methyl-5-((3-methylpyrazin-2-yl)methyl)pyrido[2,3-b]pyrazin-6(5H)-one], in assay [2] (setting [3]), the pIC50 was over 6.30.

As for `Cc1ncc2cc(C3CCN(c4c(C)cccc4F)CC3)c(=O)n(Cc3nccnc3C)c2n1` [compound 107, 6-(1-(2-Fluoro-6-methylphenyl)piperidin-4-yl)-2-methyl-8-((3-methylpyrazin-2-yl)methyl)pyrido[2,3-d]pyrimidin-7(8H)-one], the pIC50 in assay [2] (setting [3]) is 5.30 to 6.30.

As to `Cc1nccnc1Cn1c(=O)c(C2CCN(c3ccccc3OC(F)(F)F)CC2)cc2nccnc21` [compound 108, 5-((3-Methylpyrazin-2-yl)methyl)-7-(1-(2-(trifluoromethoxy)phenyl)piperidin-4-yl)pyrido[2,3-b]pyrazin-6(5H)-one], in assay [2] (setting [3]), the pIC50 was 5.30 to 6.30.

With `Cc1ccccc1N1CCC(c2cc3nccnc3n(Cc3nccnc3C)c2=O)CC1` [compound 109, 5-((3-Methylpyrazin-2-yl)methyl)-7-(1-(o-tolyl)piperidin-4-yl)pyrido[2,3-b]pyrazin-6(5H)-one], the pIC50 in assay [2] was 5.30 to 6.30.

As for `Cc1ncc2cc(N3CCN(c4c(C)cccc4F)CC3)c(=O)n(Cc3ncccc3OC(F)(F)F)c2n1` [compound 110, 6-(4-(2-Fluoro-6-methylphenyl)piperazin-1-yl)-2-methyl-8-((3-(trifluoromethoxy)pyridin-2-yl)methyl)pyrido[2,3-d]pyrimidin-7(8H)-one], in assay [2] (setting [3]), the pIC50 was over 6.30.

On to `Cc1nccnc1Cn1c(=O)c(C2CCN(c3ccccc3OC(F)F)CC2)cc2nccnc21` [compound 111, 7-(1-(2-(Difluoromethoxy)phenyl)piperidin-4-yl)-5-((3-methylpyrazin-2-yl)methyl)pyrido[2,3-b]pyrazin-6(5H)-one], for which, in assay [2] (setting [3]), the pIC50 is 4.00 to 5.30.

On to `COc1cnc2cc(C3CCN(c4c(C)cccc4F)CC3)c(=O)n(Cc3nccnc3C)c2n1` [compound 112, 7-(1-(2-Fluoro-6-methylphenyl)piperidin-4-yl)-3-methoxy-5-((3-methylpyrazin-2-yl)methyl)pyrido[2,3-b]pyrazin-6(5H)-one], for which the pIC50 in assay [2] (setting [3]) was 4.00 to 5.30.

In the case of `Cc1cnc2cc(C3CCN(c4ccnnc4C)CC3)c(=O)n(Cc3ncccc3C(F)(F)F)c2n1` [compound 113, 3-Methyl-7-(1-(3-methylpyridazin-4-yl)piperidin-4-yl)-5-((3-(trifluoromethyl)pyridin-2-yl)methyl)pyrido[2,3-b]pyrazin-6(5H)-one], the pIC50 in assay [2] (setting [3]) was under 4.00.

In the case of `Cc1cnc2cc(C3CCN(c4cncnc4C)CC3)c(=O)n(Cc3ncccc3C(F)(F)F)c2n1` [compound 114, 3-Methyl-7-(1-(4-methylpyrimidin-5-yl)piperidin-4-yl)-5-((3-(trifluoromethyl)pyridin-2-yl)methyl)pyrido[2,3-b]pyrazin-6(5H)-one], the pIC50 in assay [2] (setting [3]) was 4.00 to 5.30.

Take `Cc1cnc2cc(C3CCN(c4nnccc4C)CC3)c(=O)n(Cc3ncccc3C(F)(F)F)c2n1` [compound 115, 3-Methyl-7-(1-(4-methylpyridazin-3-yl)piperidin-4-yl)-5-((3-(trifluoromethyl)pyridin-2-yl)methyl)pyrido[2,3-b]pyrazin-6(5H)-one]: in assay [2] (setting [3]), the pIC50 was 5.30 to 6.30.

Regarding `Cc1cccc(F)c1N1CCC(c2cc3nccnc3n(Cc3cncnc3C(F)(F)F)c2=O)CC1` [compound 116, 7-(1-(2-Fluoro-6-methylphenyl)piperidin-4-yl)-5-((4-(trifluoromethyl)pyrimidin-5-yl)methyl)pyrido[2,3-b]pyrazin-6(5H)-one], the pIC50 in assay [2] (setting [3]) was 5.30 to 6.30.

`Cc1ncc2cc(N3CCN(c4c(C)cccc4F)CC3)c(=O)n(Cc3ncccc3OC(F)F)c2n1` [compound 117, 8-((3-(Difluoromethoxy)pyridin-2-yl)methyl)-6-(4-(2-fluoro-6-methylphenyl)piperazin-1-yl)-2-methylpyrido[2,3-d]pyrimidin-7(8H)-one]: the negative-log IC50 (pIC50) in assay [2] (setting [3]) was 5.30 to 6.30.

For `Cc1ncc2cc(N3CCN(c4c(C)cccc4F)CC3)c(=O)n(Cc3ncccc3C(F)(F)F)c2n1` [compound 119, 6-(4-(2-Fluoro-6-methylphenyl)piperazin-1-yl)-2-methyl-8-((3-(trifluoromethyl)pyridin-2-yl)methyl)pyrido[2,3-d]pyrimidin-7(8H)-one], the pIC50 in assay [2] (setting [3]) was 5.30 to 6.30.

Regarding `Cc1cccc(F)c1N1CCC(c2cc3nccnc3n(Cc3nccnc3C(F)F)c2=O)CC1` [compound 122, 5-((3-(Difluoromethyl)pyrazin-2-yl)methyl)-7-(1-(2-fluoro-6-methylphenyl)piperidin-4-yl)pyrido[2,3-b]pyrazin-6(5H)-one], the negative logarithm of the IC50 (pIC50) in assay [2] (setting [3]) was over 6.30.

Regarding `Cc1cnc2cc([C@H]3CC[C@H](c4c(C)ccc5c4cnn5C)CC3)c(=O)n(Cc3ncccc3C(F)(F)F)c2n1` [compound 218, 7-((1r,4r)-4-(1,5-Dimethyl-1H-indazol-4-yl)cyclohexyl)-3-methyl-5-((3-(trifluoromethyl)pyridin-2-yl)methyl)pyrido[2,3-b]pyrazin-6(5H)-one], in assay [1] (at 10 μM), the “[Agonist] B-arrestin2 recruitment” value was “Non-Active at 10 μM”.

For `Cc1ccc2cc([C@H]3CC[C@H](c4c(C)cccc4F)CC3)c(=O)n(Cc3nccnc3C(C)(F)F)c2n1` [compound 269, 1-{[3-(1,1-Difluoroethyl)-2-pyrazinyl]methyl}-7-methyl-3-[(1r,4r)-4-(2-fluoro-6-tolyl)cyclohexyl]-1,8-diaza-2(1H)-naphthalenone], the “[Agonist] B-arrestin2 recruitment” value in assay [1] was “Non-Active”.

Source of the values: patent US20260317320A1, “C5AR1 ANTAGONISTS AND USES THEREOF” (Vanqua Bio, Inc., priority 2022, published 2026).
